According to US20170145000A1, “CANAGLIFLOZIN MONOHYDRATE AND ITS CRYSTALLINE FORMS, PREPARATION METHODS AND USES THEREOF” (Hangzhou Pushai Pharmaceutical Technology Co., Ltd., priority 2014, published 2017):

What was measured:
Format in all cases: physicochemical
[1] = repetition of prior art forms and test of their properties (stability in water, phase stability); details: prior art processes repeated by the inventors; competitive stability test in water
Source text: The above properties may lead to problems in their pharmaceutical formulations, including variations in active substance content, poor reproducibility, impurities increasing during storage, efficacy decreasing, and so on. Moreover, the known canagliflozin is amorphous.

[2] = competitive stability test in water at room temperature with Monohydrate Form HI (XRPD); details: equal 250 mg samples of Form HI, known canagliflozin, Form A and Form hH1 mixed with 5 mL water, stirred 7 days
Method: The competitive stability test of canagliflozin Monohydrate Form HI of the present invention, the known canagliflozin, canagliflozin hemihydrate Form hH1 and canagliflozin Form A was performed in water at room temperature.
Conditions of the competitive stability test were as follows: take equal quantity (250 mg) samples of canagliflozin Monohydrate Form HI of the present invention, canagliflozin prepared in the preparation example 1, canagliflozin Form A prepared in the preparation example 2 and canagliflozin hemihydrate Form hH1 prepared in the preparation example 3 respectively, mix the samples with 5 mL of water to form a suspension. The suspension was stirred for 7 days at room temperature and then XRPD characterization analysis was performed.

[3] = competitive stability test in water at room temperature with Monohydrate Form HII (XRPD); details: equal 250 mg samples of Form HII, known canagliflozin, Form A and Form hH1 mixed with 3 mL water, stirred 7 days
Method: The competitive stability test among canagliflozin Monohydrate Form HII of the present invention, the known Canagliflozin, canagliflozin hemihydrate Form hH1 and canagliflozin Form A was performed in water at room temperature.
Conditions of the competitive stability test were as follows: take equal quantity (250 mg) samples of canagliflozin Monohydrate Form HII of the present invention, canagliflozin prepared in the preparation example 1 in the present invention, canagliflozin Form A prepared in the preparation example 2 in the present invention and canagliflozin hemihydrate Form hH1 prepared in the preparation 3 in the present invention, respectively, and mix the samples with 3 mL of water to form a suspension. The suspension was stirred for 7 days at room temperature and then XRPD characterization analysis was performed.

[4] = storage in desiccator at room temperature and controlled relative humidity; details: room temperature

SMILES	stability in water / phase stability of repeated prior art forms [1]	crystalline form after storage ([4]; desiccator, 10% to 90% RH, 4 months)	crystalline form after storage ([4]; desiccators, relative humidities from 57% to 75%, continued storage for 4 months)	crystalline form after competitive stability test in water [2]	crystalline form after competitive stability test in water [3]	crystalline form after storage ([4]; desiccators, relative humidities from 57% to 75%, 1 day)
Cc1ccc([C@@H]2O[C@H](CO)[C@@H](O)[C@H](O)[C@H]2O)cc1Cc1ccc(-c2ccc(F)cc2)s1 [Cangaliflozin Form B]	poor phase stability					
Cc1ccc([C@@H]2O[C@H](CO)[C@@H](O)[C@H](O)[C@H]2O)cc1Cc1ccc(-c2ccc(F)cc2)s1 [canagliflozin Form A]	not stable in water			transformed to canagliflozin Monohydrate Form HI	transformed to canagliflozin Monohydrate Form HII	
Cc1ccc([C@@H]2O[C@H](CO)[C@@H](O)[C@H](O)[C@H]2O)cc1Cc1ccc(-c2ccc(F)cc2)s1 [canagliflozin Monohydrate Form HI, canagliflozin monohydrate Form HI]		remained unchanged		maintained its original crystalline form		

More lines, main results first:

stability in water / phase stability of repeated prior art forms [1]	crystalline form after storage ([4]; desiccator, 10% to 90% RH, 4 months)	crystalline form after storage ([4]; desiccators, relative humidities from 57% to 75%, continued storage for 4 months)	SMILES	crystalline form after competitive stability test in water [2]	crystalline form after competitive stability test in water [3]	crystalline form after storage ([4]; desiccators, relative humidities from 57% to 75%, 1 day)
		remained unchanged	Cc1ccc([C@@H]2O[C@H](CO)[C@@H](O)[C@H](O)[C@H]2O)cc1Cc1ccc(-c2ccc(F)cc2)s1 [canagliflozin Monohydrate Form HII]		maintained its original crystalline form	
poor phase stability			Cc1ccc([C@@H]2O[C@H](CO)[C@@H](O)[C@H](O)[C@H]2O)cc1Cc1ccc(-c2ccc(F)cc2)s1.O [canagliflozin hemihydrate Form hH1]	transformed to canagliflozin Monohydrate Form HI	transformed to canagliflozin Monohydrate Form HII	
not stable in water			Cc1ccc([C@@H]2O[C@H](CO)[C@@H](O)[C@H](O)[C@H]2O)cc1Cc1ccc(-c2ccc(F)cc2)s1 [known canagliflozin, (1S)-1,5-anhydro-1-[3-[[5-(4-fluorophenyl)-2-thienyl]methyl]-4-methylphenyl]-D-glucitol]	transformed to canagliflozin Monohydrate Form HI	transformed to canagliflozin Monohydrate Form HII	transformed to canagliflozin Monohydrate Form HII
